# Assay results from patent publication US5294713A, “2-piperazinone compounds and their use” (Takeda Chemical Industries, Ltd., priority 1991, dated 1994).
# Legend:
# [1] = test system: human platelet aggregation; experiment: Inhibitory action on human platelet aggregation (ADP-stimulated PRP); format: cell-based; settings: ADP final concentration 3 μM, in vitro, read-out: Inhibitory effect on platelet aggregation in vitro (IC50) man
# Method: [II] Inhibitory action on human platelet aggregation
# Human blood was collected in 3.8% sodium citrate (1 ml for 9 ml of blood) by venipuncture from healthy male volunteers. The blood was centrifuged at 1000 g for 3 to 5 seconds at room temperature to obtain platelet rich plasma (PRP). The PRP was further centrifuged at 1000 g for 10 minutes to obtain platelet poor plasma (PPP). The number of platelets was measured using an automatic blood cell counter (Sysmex E2500, Toaiyou-densi). The platelet density of PRP was adjusted to 300,000/μl with PPP. Platelet aggregation was measured using an 8-channel aggregometer (NBS HEMA TRACER VI Niko Bioscience Inc.). The PRP (250 μl) was preincubated at 37° C. for 2 minutes. and then incubated for 2 minutes. with 25 μl of physiological saline or various concentrations of test drugs followed by stimulation with ADP (final concentration: 3 μM). By comparing the maximum aggregation rates of the control and those of test drugs, the inhibitory rates were determined. The results are shown in [Table 1]-[Table 3].
# [2] = test system: guinea pig platelet aggregation; experiment: Inhibitory action on guinea pig platelet aggregation (ADP-stimulated PRP); format: cell-based; settings: Cavia porcellus, ADP final concentration 1 μM, in vitro, read-out: Inhibitory effect on platelet aggregation in vitro (IC50) guinea pig
# Method: TEST EXAMPLE 1 [I] Inhibitory action on guinea pig platelet aggregation
# Blood was collected in 3.15% sodium citrate (1 ml for 9 ml of blood) by cardiac puncture from male guinea pig. The blood was centrifuged at 1000 g for 3 to 5 seconds at room temperature to obtain platelet rich plasma (PRP). The PRP was further centrifuged at 1000 g for 10 minutes to obtain platelet poor plasma (PPP). The number of platelets was measured using an automatic blood cell counter (Sysmex E2500, Toaiyou-densi). The platelet density of PRP was adjusted to 400,000/μl with PPP. Platelet aggregation was measured using an 8-channel aggregometer (NBS HEMA TRACER VI Niko Bioscience Inc.). The PRP (250 μl ) was preincubated at 37° C. for 2 minutes. and then incubated for 2 minutes. with 25 μl of physiological saline or various concentrations of test drugs followed by stimulation with ADP (final concentration: 1 μM). By comparing the maximum aggregation rates of the control and those of test drugs, the inhibitory rates were determined. The results are shown in [Table 1]-[Table 3].
# GPIIb/IIIa = biological target: T1, GPIIb/IIIa (Homo sapiens, UniProt P05106+P08514); experiment: Inhibition of fibrinogen binding to GPIIb/IIIa; settings: purified GPIIb/IIIa from HEL cells, biotinylated human fibrinogen 1 nM
# T1 construct: Purification of GPIIb/IIIa from HEL Cells; endogenous in cells; host or cells: HEL cells (HEL 92.1.7; ATCC TIB180), human erythroleukemia; GPIIb/IIIa solubilized in Triton X-100, purified and adsorbed on microtiter plates
# T1 sequence (P08514 32-887 limits assumed): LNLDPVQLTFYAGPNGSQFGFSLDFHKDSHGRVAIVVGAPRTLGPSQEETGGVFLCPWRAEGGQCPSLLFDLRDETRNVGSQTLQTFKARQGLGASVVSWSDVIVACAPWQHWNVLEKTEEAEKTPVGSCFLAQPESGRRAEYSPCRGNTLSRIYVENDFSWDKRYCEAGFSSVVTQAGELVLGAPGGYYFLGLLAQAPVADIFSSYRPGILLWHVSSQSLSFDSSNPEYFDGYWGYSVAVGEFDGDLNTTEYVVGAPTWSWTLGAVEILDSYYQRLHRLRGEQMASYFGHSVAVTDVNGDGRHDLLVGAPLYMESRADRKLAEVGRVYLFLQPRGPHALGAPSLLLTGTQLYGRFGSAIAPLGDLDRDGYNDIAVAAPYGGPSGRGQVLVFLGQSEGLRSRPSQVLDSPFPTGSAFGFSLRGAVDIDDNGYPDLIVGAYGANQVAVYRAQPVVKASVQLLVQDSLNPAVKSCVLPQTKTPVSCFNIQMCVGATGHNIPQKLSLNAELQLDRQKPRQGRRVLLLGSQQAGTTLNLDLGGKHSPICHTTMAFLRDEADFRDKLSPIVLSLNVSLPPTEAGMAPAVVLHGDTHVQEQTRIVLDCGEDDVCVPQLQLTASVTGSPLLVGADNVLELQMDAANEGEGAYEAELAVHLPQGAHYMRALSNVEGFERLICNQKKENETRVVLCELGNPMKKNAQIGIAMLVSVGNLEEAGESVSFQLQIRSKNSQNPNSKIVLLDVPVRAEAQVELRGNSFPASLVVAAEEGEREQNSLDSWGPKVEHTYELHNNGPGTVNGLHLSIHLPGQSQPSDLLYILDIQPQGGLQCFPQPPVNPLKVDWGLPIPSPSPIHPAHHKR
# T1 sequence (P08514 891-1039 limits assumed): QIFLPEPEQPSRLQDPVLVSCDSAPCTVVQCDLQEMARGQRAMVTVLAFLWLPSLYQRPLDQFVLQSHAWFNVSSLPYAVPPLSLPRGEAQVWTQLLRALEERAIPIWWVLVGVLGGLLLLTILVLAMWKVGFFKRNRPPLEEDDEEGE
# T1 sequence (P05106 27-788): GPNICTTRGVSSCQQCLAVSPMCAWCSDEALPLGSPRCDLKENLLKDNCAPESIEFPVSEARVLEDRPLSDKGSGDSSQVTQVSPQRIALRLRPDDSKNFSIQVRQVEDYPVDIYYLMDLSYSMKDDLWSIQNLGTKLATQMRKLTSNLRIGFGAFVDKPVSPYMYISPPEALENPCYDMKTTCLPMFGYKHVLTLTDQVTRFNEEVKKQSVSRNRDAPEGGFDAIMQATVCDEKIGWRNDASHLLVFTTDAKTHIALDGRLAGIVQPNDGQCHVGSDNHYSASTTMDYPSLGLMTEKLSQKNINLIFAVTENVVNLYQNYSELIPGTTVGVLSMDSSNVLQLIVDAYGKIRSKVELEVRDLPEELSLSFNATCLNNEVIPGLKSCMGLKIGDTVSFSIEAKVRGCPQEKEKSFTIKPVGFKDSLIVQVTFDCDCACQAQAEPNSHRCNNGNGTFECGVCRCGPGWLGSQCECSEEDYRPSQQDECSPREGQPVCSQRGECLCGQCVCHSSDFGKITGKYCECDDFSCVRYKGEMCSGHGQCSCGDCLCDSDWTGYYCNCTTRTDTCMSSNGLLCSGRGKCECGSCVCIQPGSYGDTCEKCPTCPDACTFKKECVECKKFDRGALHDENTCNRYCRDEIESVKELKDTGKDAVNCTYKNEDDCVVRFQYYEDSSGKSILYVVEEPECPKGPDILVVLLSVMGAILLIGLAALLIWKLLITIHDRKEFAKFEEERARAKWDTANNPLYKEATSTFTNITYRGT
# Method: (1) Cultibation of Cells Derived from Human Erythroleukemia (Hereinafter Referred to as HEL Cells)
# HEL cells (HEL 92. 1. 7; ATCC No. TIB180) were purchased from ATCC (Rockville, Md., U.S.A.). The cells were grown in RPMI medium containing 40 mM N-2-hydroxyethylpiperazin-N'-2-ethanesulfonic acid (hereinafter referred to as HEPES) (pH 7.0), 100 μg/ml of Kanamycin and 10% FCS (GIBCO Laboratories, Grand Island, N.Y., U.S.A.). Cultivation was conducted at 37° C in the presence of 5% CO2.
# (2) Purification of GPIIb/IIIa from HEL Cells
# Purification of GPIIb/IIIa was performed using the following modification of the method of L. A. Fitzgerald et al. [J. Biol. Chem., 262, 3936 (1987)]. The purification was conducted at room temperature unless specifically mentioned. From 7 L of the culture broth on 7th day of the cultibation (floating cells), the cells were collected by centrifugation (1,000×g, 10 minutes, 4° C.), which were washed with 20 mM Tris-HCl(pH 7.5) containing 1 mM EDTA and 150 mM NaCl. The cells were suspended in 80 ml of a solubilized buffer [20 mM Tris-HCl, 150 mM NaCl, 1% Triton X-100, 1 mM MgCl2, 1 mM CaCl2, 0.1 mM (p-amidinophenyl)methanesulfonyl fluoride (hereinafter referred to as APMSF), 10 nM leupeptin, 0.02% NaN3, pH 7.4)].
# The cell suspension was gently mixed for 30 minutes at 4° C. to solubilize GPIIb/IIIa. The suspension was subjected to centrigugation (100,000×g, one hour) at 4° C. to remove cell debris to obtain a cell-extraction solution (60 ml). […] The fraction which passed through the column was charged on the ConA-Sepharose column (Pharmacia LKB, .phi. 1.0×15 cm, 20 ml/hr) to allow GPIIb/IIIa to be adsorbed thereon, then GPIIb/IIIa was eluted with column buffer solution containing 0.5 M methyl α-D-mannopyranoside. The eluate thus obtained was allowed to pass through the DEAE-Toyopearl 650 M column (Tosoh, .phi. 1.6×10.5 cm, 20 ml/hr) equilibrated with the same column buffer to remove contaminating proteins.
# (3) Biotinylation of Human Fibrinogen
# Biotinylation of human fibrinogen was performed by the following procedure [I. F. Charo et al., J. Biol. Chem., 266, 1415 (1991)]. Human fibrinogen (Kabi Vitrum AB, Stockholm, Sweden) was dissolved in PBS so as to make its concentration 5 mg/ml. The solution was dialyzed overnight at 4° C. against 1 L of 0.1 M NaHCO3 -0.1 M NaCl (pH 8.2). Insolubles were then removed by centrifugation (100,000×g, 30 minutes), and the solution was diluted with the same buffer to the protein concentration of 1 mg/ml. To thus-diluted solution was added powdery sulfo-N-hydroxysuccinimidobiotin (Pierce Chemical Co., Rockford, Ill., U.S.A.) so as to make its final concentration 0.2 mg/ml and gently mixed to perform biotinylate fibrinogen. The resultant was subjected to dialysis against 50 mM Tris-HCl (pH 7.4) - 100 mM NaCl-0.05% NaN3. The dialysate was distributed and stored at 4° C.
# (4) Inhibition Assay for Fibrinogen Binding to GPIIb/IIIa
# This experiment was performed using a modification of the method described in the above-mentioned I. F. Charo et al. report. The purified GPIIb/IIIa was diluted with the buffer A (20 mM Tris-HCl, 150 mM NaCl, 1 mM CaCl2, 0.02% NaN3, pH 7.4) to a concentration of 1 μg/ml. The diluted solution was added to 96-well microtiter plates (MaxiSorp; Nunc, Denmark) at 100 μl per well, which were left standing at 4° C. overnight to allow GPIIb/IIIa to be adsorbed on the microplates. The plate was aspirated, and then 150 μl of the buffer B (35 mg/ml BSA, 50 mM Tris-HCl, 100 mM NaCl, 2 mM CaCl2, 0.02%, NaN3, pH 7.4) was added to the plate, and blocking was performed at 30° C. for 2 hours. The plate was washed twice with 250 μl each of the buffer C (1 mg/ml BSA, 50mM Tris-HCl, 100 mM NaCl, 2 mM CaCl2, pH 7.4).
compound,measurement,setting,value
N=C(N)NC[C@H]1CC[C@H](C(=O)NCC(=O)N2CCN(CC(=O)O)C(=O)[C@@H]2CC(=O)O)CC1 [compound 5],IC50,[1],1100 nM
same,IC50,[2],3800 nM
same,IC50,GPIIb/IIIa,20 nM
N=C(N)NCCCCC(=O)NCC(=O)N1CCN(CC(=O)O)C(=O)[C@@H]1CC(=O)O [compound 6],IC50,GPIIb/IIIa,46 nM
N=C(N)NCc1ccc(C(=O)NCC(=O)N2CCN(CC(=O)O)C(=O)[C@@H]2CC(=O)O)cc1 [compound 8],IC50,[1],660 nM
same,IC50,[2],1300 nM
same,IC50,GPIIb/IIIa,18 nM
N=C(N)NCc1cccc(C(=O)NCC(=O)N2CCN(CC(=O)O)C(=O)[C@@H]2CC(=O)O)c1 [compound 9],IC50,GPIIb/IIIa,73 nM
N=C(N)Nc1ccc(C(=O)NCC(=O)N2CCN(CC(=O)O)C(=O)[C@@H]2CC(=O)O)cc1 [compound 10],IC50,[1],260 nM
same,IC50,[2],340 nM
same,IC50,GPIIb/IIIa,4.8 nM
CN(CC(=O)N1CCN(CC(=O)O)C(=O)[C@@H]1CC(=O)O)C(=O)[C@H]1CC[C@H](CNC(=N)N)CC1 [compound 12],IC50,[1],700 nM
same,IC50,[2],1100 nM
same,IC50,GPIIb/IIIa,10 nM
N=C(N)NC[C@H]1CC[C@H](C(=O)NCC(=O)N2CCN(CC(=O)O)C(=O)[C@@H]2Cc2ccccc2)CC1 [compound 16],IC50,[1],990 nM
same,IC50,[2],4600 nM
same,IC50,GPIIb/IIIa,32 nM
N=C(N)NC[C@H]1CC[C@H](C(=O)NCC(=O)N2CCN(CC(=O)O)C(=O)[C@@H]2CC(N)=O)CC1 [compound 22],IC50,[1],720 nM
same,IC50,[2],4400 nM
same,IC50,GPIIb/IIIa,23 nM
N=C(N)NC[C@H]1CC[C@H](C(=O)NCC(=O)N2CCN(CC(=O)O)C(=O)[C@@H]2CCC(=O)O)CC1 [compound 32],IC50,[1],960 nM
same,IC50,[2],3100 nM
same,IC50,GPIIb/IIIa,15 nM
N=C(N)NC[C@H]1CC[C@H](C(=O)NCC(=O)N2CCN(CC(=O)O)C(=O)C2)CC1 [compound 35],IC50,[1],1100 nM
same,IC50,[2],5200 nM
N=C(N)NC[C@H]1CC[C@H](C(=O)N[C@@H](Cc2ccccc2)C(=O)N2CCN(CC(=O)O)C(=O)C2)CC1 [compound 37],IC50,[1],520 nM
same,IC50,[2],7000 nM
same,IC50,GPIIb/IIIa,7.9 nM
N=C(N)N1CCC(C(=O)NCC(=O)N2CCN(CC(=O)O)C(=O)[C@@H]2CC(=O)O)CC1 [compound 38],IC50,[1],1600 nM
same,IC50,[2],9600 nM
same,IC50,GPIIb/IIIa,21 nM
N=C(N)c1ccc(C(=O)NCC(=O)N2CCN(CC(=O)O)C(=O)[C@@H]2CC(=O)O)cc1 [compound 39],IC50,[1],110 nM
same,IC50,[2],165 nM
same,IC50,GPIIb/IIIa,1 nM
N=C(N)c1ccc(CC(=O)NCC(=O)N2CCN(CC(=O)O)C(=O)[C@@H]2CC(=O)O)cc1 [compound 45],IC50,[1],1500 nM
same,IC50,[2],1600 nM
same,IC50,GPIIb/IIIa,8.1 nM
NCCc1ccc(C(=O)NCC(=O)N2CCN(CC(=O)O)C(=O)[C@@H]2CC(=O)O)cc1 [compound 46],IC50,[1],230 nM
same,IC50,[2],130 nM
same,IC50,GPIIb/IIIa,2.5 nM
NCc1ccc(C(=O)NCC(=O)N2CCN(CC(=O)O)C(=O)[C@@H]2CC(=O)O)cc1 [compound 47],IC50,[1],4200 nM
NCCCc1ccc(C(=O)NCC(=O)N2CCN(CC(=O)O)C(=O)[C@@H]2CC(=O)O)cc1 [compound 48],IC50,GPIIb/IIIa,15 nM
N=C(N)Nc1ccc(C(=O)N2CCC[C@H]2C(=O)N2CCN(CC(=O)O)C(=O)[C@@H]2CC(=O)O)cc1 [compound 50],IC50,[2],345 nM
same,IC50,GPIIb/IIIa,21 nM
CN(CC(=O)N1CCN(CC(=O)O)C(=O)[C@@H]1CC(=O)O)C(=O)c1ccc(NC(=N)N)cc1 [compound 51],IC50,[1],460 nM
same,IC50,[2],370 nM
N=C(N)c1ccc(C(=O)NCC(=O)N2CCN([C@@H](Cc3ccccc3)C(=O)O)C(=O)[C@@H]2CC(=O)O)cc1 [compound 54],IC50,[1],660 nM
same,IC50,[2],4100 nM
same,IC50,GPIIb/IIIa,6.1 nM
N=C(N)c1ccc(C(=O)NCC(=O)N2CCN(CC(=O)O)C(=O)C2)cc1 [compound 55],IC50,[1],94 nM
same,IC50,[2],210 nM
same,IC50,GPIIb/IIIa,0.42 nM
COC(=O)CN1CCN(C(=O)CNC(=O)c2ccc(C(=N)N)cc2)[C@@H](CC(=O)O)C1=O [compound 57],IC50,[1],2600 nM
same,IC50,[2],1750 nM
same,IC50,GPIIb/IIIa,20 nM
COC(=O)C[C@H]1C(=O)N(CC(=O)O)CCN1C(=O)CNC(=O)c1ccc(C(=N)N)cc1 [compound 59],IC50,[1],48 nM
same,IC50,[2],56 nM
same,IC50,GPIIb/IIIa,0.49 nM
COC(=O)C[C@H]1C(=O)N(CC(=O)O)CCN1C(=O)CNC(=O)c1ccc(CCN)cc1 [compound 60],IC50,[1],93 nM
same,IC50,[2],78 nM
same,IC50,GPIIb/IIIa,0.91 nM
N=C(N)c1ccc(C(=O)NCC(=O)N2CCN(CC(=O)O)C(=O)[C@@H]2Cc2ccccc2)cc1 [compound 61],IC50,[1],130 nM
same,IC50,[2],160 nM
CC(C)(C)C(=O)OCOC(=O)CN1CCN(C(=O)CNC(=O)c2ccc(C(=N)N)cc2)[C@@H](Cc2ccccc2)C1=O [compound 63],IC50,[1],720 nM
same,IC50,[2],460 nM
same,IC50,GPIIb/IIIa,8.9 nM
CCC(C)[C@H]1C(=O)N(CC(=O)O)CCN1C(=O)CNC(=O)c1ccc(NC(=N)N)cc1 (stereo partly shown) [compound 65],IC50,[2],4600 nM
same,IC50,GPIIb/IIIa,98 nM
N=C(N)c1ccc(C(=O)NCC(=O)N2CCN(CC(=O)O)C(=O)[C@@H]2CCC(=O)O)cc1 [compound 66],IC50,[1],52 nM
same,IC50,[2],66 nM
same,IC50,GPIIb/IIIa,0.2 nM
COC(=O)CC[C@H]1C(=O)N(CC(=O)O)CCN1C(=O)CNC(=O)c1ccc(CCN(C)C)cc1 [compound 81],IC50,[2],2300 nM
same,IC50,GPIIb/IIIa,37 nM
